Read-outs that look alike come from different tables or passages of the source. Starred links: 1 amine or outer side, 2 acyl side, 3 side chain; linkers in the order of their positions; H or OH if unused. Non-standard residues stand in square brackets, D forms with d. Residues, ends and D or L forms follow the SMILES beside them. X1 = N[C@@H](Cc1ccccc1)CN(CC(=O)[*:2])[*:1]
Assays:
Set-up in all cases: dose or concentration left out as unconfirmed
CXCR2 = target: T1, CXCR2 (Homo sapiens, UniProt P25025); assay: Figure S2a opioid peptide screen on chemokine receptors; format: cell-based
T1 construct: expressed in transfected cells
T1 sequence (P25025 1-360): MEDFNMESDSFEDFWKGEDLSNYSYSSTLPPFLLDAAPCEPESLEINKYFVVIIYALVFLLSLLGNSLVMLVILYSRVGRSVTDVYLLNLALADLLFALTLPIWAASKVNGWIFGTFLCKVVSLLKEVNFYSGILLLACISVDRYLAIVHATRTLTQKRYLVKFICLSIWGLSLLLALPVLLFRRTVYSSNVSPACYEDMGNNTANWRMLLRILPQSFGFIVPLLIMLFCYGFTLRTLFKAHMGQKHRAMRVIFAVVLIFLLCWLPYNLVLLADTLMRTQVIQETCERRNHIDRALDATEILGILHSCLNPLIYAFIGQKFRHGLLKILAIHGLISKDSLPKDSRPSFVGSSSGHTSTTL

CCR5 = target: T2, CCR5 (Homo sapiens, UniProt P51681); assay: as above; format: cell-based
T2 construct: expressed in transfected cells

CCR1 = target: T3, CCR1 (Homo sapiens, UniProt P32246); assay: as above; format: cell-based
T3 construct: expressed in transfected cells
T3 sequence (P32246 1-355): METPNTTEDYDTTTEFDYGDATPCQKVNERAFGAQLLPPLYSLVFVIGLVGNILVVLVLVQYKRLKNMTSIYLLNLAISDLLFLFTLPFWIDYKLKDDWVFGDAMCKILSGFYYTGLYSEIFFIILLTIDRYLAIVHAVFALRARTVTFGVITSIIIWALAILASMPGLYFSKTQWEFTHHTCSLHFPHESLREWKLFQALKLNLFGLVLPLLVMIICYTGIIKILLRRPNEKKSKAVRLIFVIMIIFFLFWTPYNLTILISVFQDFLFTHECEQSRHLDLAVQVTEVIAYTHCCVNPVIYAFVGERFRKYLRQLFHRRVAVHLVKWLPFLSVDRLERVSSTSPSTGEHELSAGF

ACKR4 = target: T4, ACKR4 (Homo sapiens, UniProt Q9NPB9); assay: as above; conditions: read-out: ACKR4 activity, ctrl+ = 100, Figure S2a
T4 sequence (Q9NPB9 1-350): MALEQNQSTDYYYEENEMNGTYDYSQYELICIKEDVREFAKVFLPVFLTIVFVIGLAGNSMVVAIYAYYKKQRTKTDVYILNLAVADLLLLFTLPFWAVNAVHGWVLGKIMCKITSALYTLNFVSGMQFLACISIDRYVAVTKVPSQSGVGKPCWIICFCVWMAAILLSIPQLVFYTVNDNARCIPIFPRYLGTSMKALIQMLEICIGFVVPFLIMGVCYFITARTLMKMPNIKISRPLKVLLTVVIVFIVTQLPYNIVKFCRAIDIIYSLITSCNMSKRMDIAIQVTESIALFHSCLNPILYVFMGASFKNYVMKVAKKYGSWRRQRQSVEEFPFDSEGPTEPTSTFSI

CXCR4 = target: T5, CXCR4 (Homo sapiens, UniProt P61073); assay: cell-based; conditions: Figure S2a, read-out: CXCR4 activity, ctrl+ = 100
T5 construct: expressed in transfected cells; host or cells: U87, transient cotransfection of pNBe vectors

CCR8 = CCR8 (Homo sapiens, UniProt P51685); assay: Figure S2a opioid peptide screen on chemokine receptors; conditions: read-out: CCR8 activity, ctrl+ = 100, Figure S2a
CXCR3B = target: T6, CXCR3B (Homo sapiens, UniProt P49682); assay: as above; format: cell-based
T6 construct: expressed in transfected cells; host or cells: U87 cells
T6 sequence (P49682 1-415 isoform P49682-2): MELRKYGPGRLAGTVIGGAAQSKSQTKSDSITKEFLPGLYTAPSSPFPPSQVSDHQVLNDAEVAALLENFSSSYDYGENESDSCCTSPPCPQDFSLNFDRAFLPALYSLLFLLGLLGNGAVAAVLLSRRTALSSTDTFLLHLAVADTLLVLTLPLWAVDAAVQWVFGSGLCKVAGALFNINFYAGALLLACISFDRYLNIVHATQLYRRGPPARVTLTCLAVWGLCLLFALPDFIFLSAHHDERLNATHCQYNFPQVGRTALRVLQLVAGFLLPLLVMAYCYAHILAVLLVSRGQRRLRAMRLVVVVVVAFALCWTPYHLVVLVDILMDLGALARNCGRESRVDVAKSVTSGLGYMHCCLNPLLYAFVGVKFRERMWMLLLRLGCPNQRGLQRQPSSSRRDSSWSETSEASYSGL

CXCR5 = target: T7, CXCR5 (Homo sapiens, UniProt P32302); assay: as above; format: cell-based
T7 construct: expressed in transfected cells
T7 sequence (P32302 1-372): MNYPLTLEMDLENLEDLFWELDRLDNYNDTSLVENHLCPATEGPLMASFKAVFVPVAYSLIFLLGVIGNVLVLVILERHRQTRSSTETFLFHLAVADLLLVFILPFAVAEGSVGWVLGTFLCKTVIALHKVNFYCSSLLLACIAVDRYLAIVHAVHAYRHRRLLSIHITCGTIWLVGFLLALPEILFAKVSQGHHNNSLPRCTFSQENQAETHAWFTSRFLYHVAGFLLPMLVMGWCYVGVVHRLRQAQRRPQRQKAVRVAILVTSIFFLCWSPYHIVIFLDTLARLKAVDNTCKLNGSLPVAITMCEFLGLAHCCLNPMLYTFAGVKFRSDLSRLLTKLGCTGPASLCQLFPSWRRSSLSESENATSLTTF

[1] = replicate 1, read-out: CXCR2 activity, ctrl+ = 100
[2] = replicate 2, read-out: CXCR2 activity, ctrl+ = 100
[3] = replicate 1, read-out: CCR5 activity, ctrl+ = 100
[4] = replicate 2, read-out: CCR5 activity, ctrl+ = 100
[5] = replicate 1, read-out: CCR1 activity, ctrl+ = 100
[6] = replicate 2, read-out: CCR1 activity, ctrl+ = 100
[7] = replicate 1, read-out: CXCR3B activity, ctrl+ = 100
[8] = replicate 2, read-out: CXCR3B activity, ctrl+ = 100
[9] = replicate 1, read-out: CXCR5 activity, ctrl+ = 100
[10] = replicate 2, read-out: CXCR5 activity, ctrl+ = 100

T5 sequence (P61073 whole entry): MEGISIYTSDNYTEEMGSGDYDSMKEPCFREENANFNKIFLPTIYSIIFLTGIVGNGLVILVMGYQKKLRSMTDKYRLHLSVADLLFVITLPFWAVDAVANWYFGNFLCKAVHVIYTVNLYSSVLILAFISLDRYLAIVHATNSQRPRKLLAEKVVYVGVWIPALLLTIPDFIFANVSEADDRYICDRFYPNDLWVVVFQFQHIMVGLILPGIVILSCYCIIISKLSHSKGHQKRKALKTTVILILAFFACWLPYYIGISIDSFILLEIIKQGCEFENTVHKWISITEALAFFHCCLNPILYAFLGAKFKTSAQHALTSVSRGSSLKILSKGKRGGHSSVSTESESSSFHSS
T2 sequence (P51681 whole entry): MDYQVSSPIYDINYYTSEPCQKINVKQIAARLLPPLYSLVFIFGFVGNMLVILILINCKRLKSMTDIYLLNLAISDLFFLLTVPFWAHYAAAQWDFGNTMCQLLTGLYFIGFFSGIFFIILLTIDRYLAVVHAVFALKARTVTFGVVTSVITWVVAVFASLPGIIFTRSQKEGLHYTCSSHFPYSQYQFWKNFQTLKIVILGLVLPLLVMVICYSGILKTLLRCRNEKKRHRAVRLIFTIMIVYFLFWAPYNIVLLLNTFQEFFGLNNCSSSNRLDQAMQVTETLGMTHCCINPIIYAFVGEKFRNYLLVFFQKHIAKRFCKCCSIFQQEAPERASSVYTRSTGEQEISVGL
Sequence of CCR8 (P51685 whole entry): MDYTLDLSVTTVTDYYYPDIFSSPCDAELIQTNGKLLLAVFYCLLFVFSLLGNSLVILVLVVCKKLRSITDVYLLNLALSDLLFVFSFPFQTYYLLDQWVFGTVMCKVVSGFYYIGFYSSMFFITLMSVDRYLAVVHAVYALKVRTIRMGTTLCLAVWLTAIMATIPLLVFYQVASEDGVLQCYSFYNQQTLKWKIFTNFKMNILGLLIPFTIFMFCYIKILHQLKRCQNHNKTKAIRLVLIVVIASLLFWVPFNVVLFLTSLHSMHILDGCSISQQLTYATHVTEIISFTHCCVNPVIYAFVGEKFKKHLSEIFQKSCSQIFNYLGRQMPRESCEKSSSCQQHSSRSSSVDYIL

SMILES | activation (CXCR2; [1]) | activation (CXCR2; [2]) | activation (CCR5; [3]) | activation (CCR5; [4]) | activation (CCR1; [5]) | activation (CCR1; [6]) | activation (ACKR4; replicate 2) | activation (CXCR4; replicate 1) | activation (CXCR4; replicate 2) | activation (CCR8; replicate 1) | activation (CCR8; replicate 2) | activation (CXCR3B; [7]) | activation (CXCR3B; [8]) | activation (CXCR5; [9]) | activation (CXCR5; [10]) | activation (ACKR4; replicate 1) | other results
C[C@H](NC(=O)CNC(=O)[C@@H](NC(=O)[C@H](Cc1ccccc1)NC(=O)CNC(=O)CNC[C@@H](N)Cc1ccccc1)[C@@H](C)O)C(=O)N[C@@H](CCCNC(=N)N)C(=O)N[C@@H](CCCCN)C(=O)N[C@@H](CO)C(=O)N[C@@H](C)C(=O)N[C@@H](CCCNC(=N)N)C(=O)N[C@@H](CCCCN)C(N)=O [FG Nociceptin 1-13] (H-[X1]GFTGARKSARK-NH2) | -5.21% | -6.16% | -0.325% | 0.224% | 5.65% | -10.1% | -0.784% | 1.4% | -4.91% | -24.5% | 3.75% | -0.717% | 1.26% | -5.41% | -2.11% | – | activation (CXCR2; replicate 3, read-out: CXCR2 activity, ctrl+ = 100): -0.318%; activation (CCR5; replicate 3, read-out: CCR5 activity, ctrl+ = 100): 0.582%; activation (CCR1; replicate 3, read-out: CCR1 activity, ctrl+ = 100): -16.6%; activation (ACKR4; replicate 3): 0.45%; activation (CXCR4; replicate 3): 27.5%; activation (CCR8; replicate 3): 4.53%; activation (CXCR3B; replicate 3, read-out: CXCR3B activity, ctrl+ = 100): 8.05%; activation (CXCR5; replicate 3, read-out: CXCR5 activity, ctrl+ = 100): -0.496%
CC[C@H](C)[C@H](NC(=O)[C@H](CCCNC(=N)N)NC(=O)[C@H](CCCNC(=N)N)NC(=O)[C@H](CC(C)C)NC(=O)[C@H](Cc1ccccc1)NC(=O)CNC(=O)CN)C(=O)N[C@@H](CCCNC(=N)N)C(=O)N1CCC[C@H]1C(=O)N[C@@H](CCCCN)C(=O)N[C@@H](CC(C)C)C(=O)N[C@@H](CCCCN)C(=O)N[C@@H](Cc1c[nH]c2ccccc12)C(=O)N[C@@H](CC(=O)O)C(=O)N[C@@H](CC(N)=O)C(=O)N[C@@H](CCC(N)=O)C(=O)O [Dynorphin 2-17] | -7.18% | -15.9% | 1.32% | -2.11% | -21% | -15.3% | -4.71% | -9.77% | -26.7% | -6.57% | 0.623% | -1.19% | -3.44% | -2.49% | -3.33% | -1.91% | –
CC[C@H](C)[C@H](NC(=O)[C@H](CCCNC(=N)N)NC(=O)[C@H](CCCNC(=N)N)NC(=O)[C@H](CC(C)C)NC(=O)[C@H](Cc1ccccc1)NC(=O)CNC(=O)CNC(=O)[C@@H](N)Cc1ccc(O)cc1)C(=O)N[C@@H](CCCNC(=N)N)C(=O)N1CCC[C@H]1C(=O)N[C@@H](CCCCN)C(=O)N[C@@H](CC(C)C)C(=O)N[C@@H](CCCCN)C(=O)O [Dynorphin 1-13] | -2.31% | -22.4% | -0.272% | -1.44% | -29% | -26.2% | -4.85% | 13.2% | -40.8% | – | -19.6% | 3.92% | -5.01% | -0.575% | -5.55% | -2% | –
